Measured values: EPA's ToxRefDB 2

What was measured:
rat [1] = details: Prenatal developmental toxicity study, sprague dawley, Oral, Gavage/Intubation, dose end: 15 GD
mouse [2] = details: Carcinogenicity, cd1, Oral, Feed, dose end: 2 year, group: systemic
rat [3] = details: Combined chronic toxicity/carcinogenicity, sprague dawley, Oral, Feed, dose end: 24 month, group: systemic
mouse [4] = details: Combined chronic toxicity/carcinogenicity, other, Oral, Feed, dose end: 80 week, group: systemic
rat [5] = details: Combined chronic toxicity/carcinogenicity; wistar; Oral; Feed; dose end: 2 year; group: systemic; systemic / in life observation / body weight / body weight gain + systemic / in life observation / food consumption / food consumption + …
rat [6] = details: Multigenerational reproductive toxicity study, sprague dawley, Oral, Feed, dose end: 2 generation
rat [7] = details: Combined chronic toxicity/carcinogenicity, fischer, Oral, Feed, dose end: 24 month
mouse [8] = details: Carcinogenicity, cd1, Oral, Feed, dose end: 87 week, group: systemic
rabbit = details: Prenatal developmental toxicity study, chinchilla, Oral, Gavage/Intubation, dose end: 18 GD
rat [9] = details: Subchronic oral toxicity in rodents, fischer, Gavage/Intubation, dose end: 13 week, group: systemic, systemic / in life observation / body weight / body weight
mouse [10] = details: Carcinogenicity, b6c3f1, Oral, Gavage/Intubation, dose end: 2 year, group: systemic
mouse [11] = details: Subchronic oral toxicity in rodents, b6c3f1, Gavage/Intubation, dose end: 13 week, group: systemic
dog [12] = details: Chronic toxicity; beagle; Oral; Capsule; dose end: 52 week; group: systemic; systemic / clinical chemistry / alanine aminotransferase (alt/sgpt) / alanine aminotransferase (alt/sgpt) + systemic / in life observation…
mouse [13] = details: Subchronic oral toxicity in rodents, b6c3f1, Feed, dose end: 13 week, group: systemic
mouse [14] = details: Carcinogenicity; b6c3f1; Oral; Feed; dose end: 104 week; group: systemic; systemic / in life observation / body weight / body weight
rat [15] = details: Carcinogenicity; fischer; Oral; Feed; dose end: 104 week; group: systemic; systemic / in life observation / body weight / body weight + systemic / pathology microscopic / kidney / cytomegaly + systemic / pathology …
rat [16] = details: Subchronic oral toxicity in rodents, fischer, Feed, dose end: 13 week, group: systemic
mouse [17] = details: Combined chronic toxicity/carcinogenicity, cd1, Oral, Feed, dose end: 78 week, group: systemic
dog [18] = details: Chronic toxicity, beagle, Oral, Feed, dose end: 52 week, group: systemic
rat [19] = details: Combined chronic toxicity/carcinogenicity; sprague dawley; Oral; Feed; dose end: 24 month; group: systemic; systemic / in life observation / clinical signs / urine staining - perineum
[20] = group: developmental, developmental / developmental malformation / bone / incomplete ossification + developmental / developmental malformation / interparietal / …
[21] = group: maternal, systemic / in life observation / body weight / body weight + systemic / in life observation / food consumption / food consumption
[22] = group: maternal, systemic / in life observation / body weight / body weight + systemic / in life observation / food consumption / food consumption + systemic…
[23] = systemic / pathology microscopic / heart / degeneration
[24] = systemic / pathology microscopic / heart / degeneration + systemic / pathology microscopic / liver / hemosiderin laden macrophages
[25] = systemic / in life observation / body weight / body weight
[26] = systemic / pathology microscopic / mammary gland / adenocarcinoma
[27] = systemic / in life observation / body weight / body weight + systemic / organ weight / kidney / relative to body weight + systemic / organ …
[28] = systemic / organ weight / liver / relative to body weight
[29] = group: cholinesterase, cholinesterase / cholinesterase / cholinesterase / plasma cholinesterase (che)
[30] = group: offspring, developmental / offspring survival late / lactation index / lactation index
[31] = group: offspring, developmental / offspring survival late / lactation index / lactation index + systemic / in life observation / body weight / offspring (pup…
[32] = group: parental, systemic / in life observation / body weight / body weight
[33] = group: parental, systemic / organ weight / ovary / relative to body weight
[34] = group: cholinesterase, cholinesterase / cholinesterase / cholinesterase / brain cholinesterase (che) + cholinesterase / cholinesterase / cholinesterase / …
[35] = group: systemic, systemic / hematology / mean corpuscular (cell) volume (mcv) / mean corpuscular (cell) volume (mcv) + systemic / in life observation / body …
[36] = systemic / organ weight / brain / absolute
[37] = systemic / organ weight / brain / absolute + systemic / in life observation / body weight / body weight + systemic / in life observation / …
[38] = group: developmental, developmental / developmental malformation / bone / absent + developmental / developmental malformation / bone / fused + developmental / …
[39] = group: maternal, systemic / in life observation / body weight / body weight gain + systemic / in life observation / clinical signs / ataxia + systemic / in …
[40] = systemic / pathology microscopic / liver / vacuolization + systemic / pathology microscopic / thyroid gland / hyperplasia
[41] = systemic / pathology microscopic / liver / vacuolization + systemic / pathology microscopic / thyroid gland / hyperplasia + systemic / …
[42] = systemic / pathology microscopic / stomach / inflammation
[43] = systemic / pathology microscopic / stomach / inflammation + systemic / in life observation / body weight / body weight + systemic / …
[44] = systemic / in life observation / food consumption / food consumption
[45] = systemic / in life observation / body weight / body weight gain + systemic / in life observation / body weight / body weight + systemic / …
[46] = systemic / clinical chemistry / alanine aminotransferase (alt/sgpt) / alanine aminotransferase (alt/sgpt) + systemic / clinical chemistry / …
[47] = systemic / organ weight / liver / absolute

CC(C)Nc1nc(Cl)nc(NC(C)C)n1 [Propazine]
LOAEL (rat [1]; [20]): 100 mg/kg/day | NEL (rat [1]; [20]): 10 mg/kg/day | NOAEL (rat [1]; [20]): 10 mg/kg/day | LEL (rat [1]; group: developmental, developmental / developmental malformation / interparietal / incomplete ossification): 100 mg/kg/day | LEL (rat [1]; [21]): 100 mg/kg/day | LOAEL (rat [1]; [21]): 100 mg/kg/day | NEL (rat [1]; [22]): 10 mg/kg/day | NOAEL (rat [1]; [22]): 10 mg/kg/day | NEL (mouse [2]; [23]): 150 mg/kg/day | NOAEL (mouse [2]; [23]): 150 mg/kg/day | LEL (mouse [2]; [24]): 450 mg/kg/day | LOAEL (mouse [2]; [24]): 450 mg/kg/day | LOAEL (rat [3]; [25]): 51 mg/kg/day | NOAEL (rat [3]; systemic / in life observation / body weight / body weight + systemic / in life observation / body weight / body weight gain): 5.2 mg/kg/day | LEL (rat [3]; [26]): 0.2 mg/kg/day | NEL (rat [3]; [26]): < 0.2 mg/kg/day

C/C=C/C=C/C(=O)O [Sorbic acid]
LOAEL (mouse [4]; [27]): > 15000 mg/kg/day | NOAEL (mouse [4]; [27]): ≥ 15000 mg/kg/day | LEL (mouse [4]; [28]): 1500 mg/kg/day | NEL (mouse [4]; [28]): < 1500 mg/kg/day | LEL (rat [5]): 5000 mg/kg/day | LOAEL (rat [5]): > 5000 mg/kg/day | NEL (rat [5]): 750 mg/kg/day | NOAEL (rat [5]): ≥ 5000 mg/kg/day

CCOP(=O)(NC(C)C)Oc1ccc(SC)c(C)c1 (stereo not given) [Fenamiphos]
LEL (rat [6]; [29]): 0.19 mg/kg/day | LOAEL (rat [6]; [29]): 0.19 mg/kg/day | NEL (rat [6]; [29]): < 0.19 mg/kg/day | NOAEL (rat [6]; [29]): < 0.19 mg/kg/day | LEL (rat [6]; [30]): 0.65 mg/kg/day | LOAEL (rat [6]; [30]): 0.65 mg/kg/day | NEL (rat [6]; [31]): 0.17 mg/kg/day | NOAEL (rat [6]; [31]): 0.17 mg/kg/day | LOAEL (rat [6]; [32]): > 2.94 mg/kg/day | NOAEL (rat [6]; [32]): ≥ 2.94 mg/kg/day | LEL (rat [6]; [33]): 0.2 mg/kg/day | NEL (rat [6]; [33]): < 0.2 mg/kg/day | LEL (rat [7]; [34]): 0.098 mg/kg/day | LOAEL (rat [7]; [34]): 0.098 mg/kg/day | NEL (rat [7]; [34]): < 0.098 mg/kg/day | NOAEL (rat [7]; [34]): < 0.098 mg/kg/day | LEL (rat [7]; [35]): 2.45 mg/kg/day | LOAEL (rat [7]; [35]): > 2.45 mg/kg/day | NEL (rat [7]; [35]): 0.464 mg/kg/day | NOAEL (rat [7]; [35]): ≥ 2.45 mg/kg/day | LEL (mouse [8]; [36]): 0.3 mg/kg/day | NEL (mouse [8]; [36]): < 0.3 mg/kg/day | LOAEL (mouse [8]; [37]): > 7.5 mg/kg/day | NOAEL (mouse [8]; [37]): ≥ 7.5 mg/kg/day | LEL (rabbit; [38]): 2.5 mg/kg/day | LOAEL (rabbit; [38]): 2.5 mg/kg/day | NEL (rabbit; [38]): 0.5 mg/kg/day | NOAEL (rabbit; [38]): 0.5 mg/kg/day | LEL (rabbit; [39]): 2.5 mg/kg/day | LOAEL (rabbit; [39]): 2.5 mg/kg/day | NEL (rabbit; [39]): 0.5 mg/kg/day | NOAEL (rabbit; [39]): 0.5 mg/kg/day

CCCCC(CC)COP(=O)(OCC(CC)CCCC)OCC(CC)CCCC (stereo not given) [Tris(2-ethylhexyl) phosphate]
LEL (rat [9]): 2000 mg/kg/day | LOAEL (rat [9]): 2000 mg/kg/day | NEL (rat [9]): 1000 mg/kg/day | NOAEL (rat [9]): 1000 mg/kg/day | LEL (mouse [10]; [40]): 500 mg/kg/day | NEL (mouse [10]; [40]): < 500 mg/kg/day | LOAEL (mouse [10]; [41]): > 1000 mg/kg/day | NOAEL (mouse [10]; [41]): ≥ 1000 mg/kg/day | LEL (mouse [11]; [42]): 500 mg/kg/day | NEL (mouse [11]; [42]): < 500 mg/kg/day | LOAEL (mouse [11]; [43]): 8000 mg/kg/day | NOAEL (mouse [11]; [43]): 4000 mg/kg/day

CNC(=O)N(C)c1nnc(C(C)(C)C)s1 [Tebuthiuron]
LEL (dog [12]): 50 mg/kg/day | LOAEL (dog [12]): 50 mg/kg/day | NEL (dog [12]): 25 mg/kg/day | NOAEL (dog [12]): 25 mg/kg/day

CN(C)C(=O)Nc1ccc(Cl)cc1 [Monuron]
LEL (mouse [13]; [25]): 450 mg/kg/day | LOAEL (mouse [13]; [25]): 1800 mg/kg/day | NEL (mouse [13]; [25]): < 450 mg/kg/day | NOAEL (mouse [13]; systemic / in life observation / body weight / body weight + systemic / in life observation / mortality / mortality + systemic / pathology …): 900 mg/kg/day | LEL (mouse [14]): 750 mg/kg/day | LOAEL (mouse [14]): 750 mg/kg/day | NEL (mouse [14]): < 750 mg/kg/day | NOAEL (mouse [14]): < 750 mg/kg/day | LEL (rat [15]): 37.5 mg/kg/day | LOAEL (rat [15]): 75 mg/kg/day | NEL (rat [15]): < 37.5 mg/kg/day | NOAEL (rat [15]): 37.5 mg/kg/day | LOAEL (rat [16]; [25]): 75 mg/kg/day | NOAEL (rat [16]; systemic / in life observation / body weight / body weight + systemic / in life observation / food consumption / food consumption + systemic…): 37.5 mg/kg/day | LEL (rat [16]; [44]): 37.5 mg/kg/day | NEL (rat [16]; [44]): < 37.5 mg/kg/day

CC(C)C1(C)N=C(c2nc3ccccc3cc2C(=O)O)NC1=O (stereo not given) [Imazaquin]
LOAEL (mouse [17]; systemic / in life observation / body weight / body weight gain): 600 mg/kg/day | LEL (mouse [17]; [45]): 600 mg/kg/day | NEL (mouse [17]; [45]): 150 mg/kg/day | NOAEL (mouse [17]; [45]): 150 mg/kg/day | LOAEL (dog [18]; [46]): 125 mg/kg/day | NOAEL (dog [18]; [46]): 25 mg/kg/day | LEL (dog [18]; [47]): 5 mg/kg/day | NEL (dog [18]; [47]): < 5 mg/kg/day | LEL (rat [19]): 500 mg/kg/day | LOAEL (rat [19]): > 500 mg/kg/day | NEL (rat [19]): 250 mg/kg/day | NOAEL (rat [19]): ≥ 500 mg/kg/day
